Measurements as given in patent publication US20030232860A1, “Medicine comprising dicyanopyridine derivative” (priority 2000, published 2003).

Columns and labels:
[1] = tested on: rat's removed bladder specimen; assay: Inhibition of the contraction of rat's removed bladder specimen (15 mM K+-induced contraction, organ bath); conditions: SD male rat bladder strips, dose giving 50% inhibition of contraction area
Source text: Since the inhibitory action is blocked by a known maxi-K channel blocker charybdotoxin or iberiotoxin, it is confirmed that the effect of the compounds of the invention is based on the maxi-K channel opening effect. Thus, the pharmacological effect of the compounds of the invention was confirmed according to the following method.
<Inhibitory Effect in Construction of the Rat's Removed Bladder Specimen>
In this experiment, SD-family male rats (9-13 weeks of age) were used. The rats were killed by bleeding under ether anesthesia, and the bladders were removed. The removed bladders were immediately washed in a Kiebs-Henseleit solution (NaCl 118.4, KCl 4.7, KH2PO4 1.2, MgSO4 1.2, CaCl2 2.5, NaHCO3 25.0, glucose 11.1 [mM], aeration with 95% O2/5% CO2 mixed gas) kept at 37° C., and prepared into rectangular specimens of about 10 mm long and about 2 mm width on a Petri dish filled with the Klebs-Henseleit solution. The respective specimens were ligated at the both ends with a cotton string via a wire hook, and the one end was fixed to an FD pick-up and the other hung down vertically in an organ bath filled with the Klebs-Henseleit solution. After completion of the operation, 1.0 g of static tensile stress was given to the respective slices, which were then allowed to stand for 1.5-2 hours to stabilize. Then, a KCl solution was added to the organ bath so that the final K^+ ion concentration become 15 mM to induce the contraction. Thereafter, the specimens were further allowed to stand for about 1-2 hours to stabilize, and the test was started. The contraction of the smooth muscle was measured isometrically through the FD pick-up, and the output signal was amplified through a strain stress amplifier to continuously record a chart on a pen recorder. At the same time, the respective contraction wave forms to be analyzed were recorded on a personal computer as magnetic data through an analogue/digital signal converter, and the under-area of the contraction was calculated by analytical software. The contraction 5 minutes immediately after the start of the test was regarded as the value before administration of the drug to be tested (100% reference value). The drug to be tested was added into the bath at intervals of 30 minutes, and the contraction for 5 minutes, respectively 25 minutes after the administration, was analyzed. The drug to be tested was administered at a common ratio of 3 or 10 accumulatively. The effect of the drug to be tested was represented by the dose by which 50% inhibition was attained to the value before the administration (100% reference value). Additionally, the wave form of contraction at the highest dose of the drug was recorded, and then a maxi-K channel selective blocker, charybdotoxin or iberiotoxin, was administered so that the final concentration in the organ bath became 100 nM. Thus, the effect of the drug was observed whether it was blocked or not.

| melting point [°C] | SMILES | IC50 [1] [µM] |
| --- | --- | --- |
| 297 | CSc1nc(N)c(C#N)c(-c2ccccc2)c1C#N [Example 76] |  |
| 229 to 230 | CSc1nc(N)c(C#N)c(-c2ccco2)c1C#N [Example 84] |  |
| 198 to 199 | COc1nc(N)c(C#N)c(-c2ccc[nH]2)c1C#N [Example 169] |  |
| > 300 | COc1nc(N)c(C#N)c(-c2c[nH]c3ccccc23)c1C#N [Example 170] |  |
| > 300 | N#Cc1c(N)nc(Br)c(C#N)c1-c1ccccc1 [Example 178] |  |
| 233 to 234 | CCOc1nc(N)c(C#N)c(-c2ccccc2)c1C#N [Example 179] |  |
| 202 | N#Cc1c(N)nc(Oc2ccccc2)c(C#N)c1-c1ccccc1 [Example 194] |  |
| 256 to 258 | N#Cc1c(N)nc(-n2ccnc2)c(C#N)c1-c1ccccc1 [Example 211] |  |
| 212 to 213 | N#Cc1c(N)nc(SCc2ccccc2)c(C#N)c1-c1ccccc1 [Example 217] |  |
| 157 to 159 | COc1nc(OC)c(C#N)c(-c2ccccc2)c1C#N [Example 358] |  |
| 216 to 218 | CNc1nc(OC)c(C#N)c(-c2ccccc2)c1C#N [Example 360] |  |
| 179 to 180 | COc1nc(N(C)C)c(C#N)c(-c2ccccc2)c1C#N [Example 361] |  |
| 153 to 155 | COc1nc(NCCO)c(C#N)c(-c2ccccc2)c1C#N [Example 362, 2-[(2-hydroxyethyl)amino]-6-methoxy-4-phenylpyridine-3,5-dicarbonitrile] |  |
| 140 to 141 | COC(=O)CNc1nc(OC)c(C#N)c(-c2ccccc2)c1C#N [Example 363, methyl [(3,5-dicyano-6-methoxy-4-phenylpyridin-2-yl)amino]acetate] |  |
| 168 to 170 | COc1nc(SC)c(C#N)c(-c2ccccc2)c1C#N [Example 371] |  |
| 301 | N#Cc1c(N)nc(Cl)c(C#N)c1-c1cccs1 [Example 372] |  |
| 312 | N#Cc1c(N)nc(Br)c(C#N)c1-c1cccs1 [Example 373] |  |
| 186 to 187 | N#Cc1c(N)nc(OCc2ccccc2)c(C#N)c1-c1cccs1 [Example 378] |  |
| 208 to 209 | N#Cc1c(N)nc(SCc2ccccc2)c(C#N)c1-c1cccs1 [Example 386] |  |
| 314 to 315 | N#Cc1c(N)nc(O)c(C#N)c1Cc1ccccc1 [Example 434] |  |

Further lines, the compound ahead of its results:

| SMILES | melting point [°C] | IC50 [1] [µM] |
| --- | --- | --- |
| COc1nc(N)c(C#N)c(-c2cccs2)c1C#N [Example 1, 2-amino-6-methoxy-4-(2-thienyl)pyridine-3,5-dicarbo-nitrile] |  | 0.15 |
| CSc1nc(N)c(C#N)c(C)c1C#N [Example 75] | 246 to 247 |  |
| COc1nc(N)c(C#N)c(-c2cc(F)ccc2F)c1C#N [Example 126, 2-amino-4-(2,5-difluorophenyl)-6-methoxypyridine-3,5-dicarbonitrile] | 201 to 202 |  |
| CCc1c(C#N)c(N)nc(OC)c1C#N [Example 149] | 160 to 161 |  |
| COc1nc(N)c(C#N)c(C2CCOC2)c1C#N (centres unmarked) [Example 163] | 205 to 206 |  |
| COc1nc(NC(=O)COC(C)=O)c(C#N)c(-c2ccccc2F)c1C#N [Example 397, [3,5-dicyano-4-(2-fluorophenyl)-6-methoxypyridin-2-ylcarbamoyl]methyl acetate] | 151 to 153 |  |
| COc1nc(NC(=O)COc2ccccc2)c(C#N)c(-c2ccccc2F)c1C#N [Example 398, N-[3,5-dicyano-4-(2-fluorophenyl)-6-methoxypyridin-2-yl]-2-phenoxyacetamide] | 205 to 206 |  |
| COc1nc(NC(=O)COCc2ccccc2)c(C#N)c(-c2ccccc2F)c1C#N [Example 399, 2-benzyloxy-N-[3,5-dicyano-4-(2-fluorophenyl)-6-methoxypyridin-2-yl]acetamide] | 164 to 166 |  |
| CCC(=O)Nc1nc(OC)c(C#N)c(-c2ccccc2F)c1C#N [Example 401, N-[3,5-dicyano-4-(2-fluorophenyl)-6-methoxypyridin-2-yl]propionamide] | 168 to 169 |  |
| COc1nc(NC(=O)CCc2ccccc2)c(C#N)c(-c2ccccc2F)c1C#N [Example 402, N-[3,5-dicyano-4-(2-fluorophenyl)-6-methoxypyridin-2-yl]-3-phenylpropionamide] | 183 to 184 |  |
| COCCC(=O)Nc1nc(OC)c(C#N)c(-c2ccccc2F)c1C#N [Example 404, N-[3,5-dicyano-4-(2-fluorophenyl)-6-methoxypyridin-2-yl]-3-methoxypropionamide] | 115 to 116 |  |
| COc1nc(NC(=O)C(C)C)c(C#N)c(-c2ccccc2F)c1C#N [Example 405, N-[3,5-dicyano-4-(2-fluorophenyl)-6-methoxypyridin-2-yl]isobutyramide] | 193 to 194 |  |
| COc1nc(NC(=O)C(C)(C)C)c(C#N)c(-c2ccccc2F)c1C#N [Example 406, N-[3,5-dicyano-4-(2-fluorophenyl)-6-methoxypyridin-2-yl]-2,2-dimethylpropio namide] | 162 to 164 |  |
| CCCCCC(=O)Nc1nc(OC)c(C#N)c(-c2ccccc2F)c1C#N [Example 407, N-[3,5-dicyano-4-(2-fluorophenyl)-6-methoxypyridin-2-yl]hexanamide] | 139 to 141 |  |
| COc1nc(NC(=O)c2ccc3ccccc3c2)c(C#N)c(-c2ccccc2F)c1C#N [Example 411, N-[3,5-dicyano-4-(2-fluorophenyl)-6-methoxypyridin-2-yl]naphthalene-2-carbo xamide] | 227 to 230 |  |
| COc1nc(NC(=O)c2ccccn2)c(C#N)c(-c2ccccc2F)c1C#N [Example 412, N-[3,5-dicyano-4-(2-fluorophenyl)-6-methoxypyridin-2-yl]pyridine-2-carboxamide] | 219 to 220 |  |
| COc1nc(NC(=O)c2cccs2)c(C#N)c(-c2ccccc2F)c1C#N [Example 414, N-[3,5-dicyano-4-(2-fluorophenyl)-6-methoxypyridin-2-yl]thiophene-2-carboxamide] | 208 to 209 |  |
| COc1nc(NC(=O)c2ccco2)c(C#N)c(-c2ccccc2F)c1C#N [Example 415, N-[3,5-dicyano-4-(2-fluorophenyl)-6-methoxypyridin-2-yl]furan-2-carboxamide] | 222 to 223 |  |
| COc1nc(NC(=O)Cc2ccccc2)c(C#N)c(-c2ccccc2F)c1C#N [Example 416, N-[3,5-dicyano-4-(2-fluorophenyl)-6-methoxypyridin-2-yl]-2-phenylacetamide] | 206 to 208 |  |
| COc1nc(NC(=O)NCCO)c(C#N)c(-c2ccccc2F)c1C#N [Example 420, 1-[3,5-dicyano-4-(2-fluorophenyl)-6-methoxypyridin-2-yl]-3-(2-hydroxyethyl)ur ea] | 140 to 144 |  |
| N#Cc1cc(C#N)c(Oc2ccccc2)nc1N [Example 426] | 235 to 237 |  |
| N#Cc1c(N)nc(OCc2cccnc2)c(C#N)c1Cc1ccccc1 [Example 436, 2-amino-4-benzyl-6-(pyridin-3-ylmethoxy)pyridine-3,5-dicarbonitrile] | 204 to 205 |  |
| N#Cc1c(N)nc(SCc2ccccc2)c(C#N)c1Cc1ccccc1 [Example 437] | 188 to 189 |  |
| N#Cc1c(N)nc(SCc2cccnc2)c(C#N)c1Cc1ccccc1 [Example 438, 2-amino-4-benzyl-6-[(pyridin-3-ylmethyl)sulfanyl]pyridine-3,5-dicarbonitrile] | 259 to 260 |  |
